# Legend:
# [1] = Binding affinity to Bacillus anthracis PurE by intrinsic tryptophan fluorescence analysis
# [2] = Binding affinity to Bacillus anthracis PurE by Surface Plasmon Resonance analysis
# Bacillus anthracis [3] = test: Inhibition of Bacillus anthracis PurE using CAIR as substrate at 100 uM preincubated for 5 mins followed by substrate addition by UV spectroscopic analysis
# [4] = Aqueous solubility of the compound; format: physicochemical
# [5] = Binding affinity to Escherichia coli PurE by Surface Plasmon Resonance analysis
# Bacillus anthracis [6] = test: Inhibition of Bacillus anthracis PurE using CAIR as substrate at 25 uM preincubated for 5 mins followed by substrate addition by UV spectroscopic analysis
Compound,Kd ([1]; read-out: Kd) [µM],Kd [2] [µM],further results
NC(=S)N1CCc2ccccc21,35.7,35.3,–
COc1ccc(-c2cc(N)[nH]n2)cc1,214,149,–
Cc1cc(C(=O)Nc2cccc(F)c2)no1,95.4,79.8,–
Oc1cc(Cl)c(Cl)cc1O,182,103,–
Nc1nn2c(-c3ccccc3)nnc2s1,604,121,–
Cc1cnc(NC(=O)c2ccoc2C)s1,39.6,20.3,–
CCOc1cc(CO)c(Br)cc1OC,367,157,–
CCOc1ccccc1C(=S)N1CCOCC1,61.6,73,–
Cc1ccc(C(=S)c2nnns2)cc1,81.3,60.8,inhibition (Bacillus anthracis [3]): 36%
O=C(O)c1cc2cc(F)ccc2[nH]1 [5-FLUOROINDOLE-2-CARBOXYLIC ACID],–,234,–
COc1ccc2ncc(N)cc2c1,73.8,261,–
Cc1ccc(C(N)c2ccncc2)cc1 (stereo not drawn),–,707,Kd [1]: Not Active
NCc1cc(-c2ccccc2Cl)on1,402,444,–
O=C(O)c1ccc(O)c(O)c1 [PROTOCATECHUIC ACID],–,274,solubility [4]: > 1200 µM
Nc1cncn1[C@@H]1O[C@H](COP(=O)(O)O)[C@@H](O)[C@H]1O,283,–,–
Nc1c([N+](=O)[O-])ncn1[C@@H]1O[C@H](COP(=O)(O)O)[C@@H](O)[C@H]1O,–,–,Kd [5]: 86 nM
CCc1ccc(C(=O)Nc2nncs2)s1,19.8,13.5,inhibition (Bacillus anthracis [6]): 49%

# — ChEMBL document CHEMBL3751775, “Identification of B. anthracis N(5)-carboxyaminoimidazole ribonucleotide mutase (PurE) active site binding compounds via fragment library screening” (Bioorg Med Chem, 2016)
